This test has as its system human airway smooth muscle (HASM) cells. Nature of the test: High-throughput traction microscopy (HTTM): RMS traction of HASM cell monolayers on gel in 96-well plates, before and after adding drug. It is filed as cell-based. The conditions noted are these: for normalized traction (RMS traction after adding drug/RMS traction before adding drug): control drugs on zero-hit drug plate, FIG. 14; for change in cellular contraction (RMS traction) with increasing doses: FIG. 13, control drugs. How it is done: Acrylamide gels with 1.8 kPa stiffness and 200-μm thickness were made in 96-well plates, fluorescent markers were coated in a single layer (0.2 μm) onto gel surfaces, and the gel plates were mounted on a fluorescent microscope with motorized stage. On each gel, HASM cells from a single donor were cultured to near confluence. Each well was seeded with 20,000 cells and was serum deprived for 2 days. FIG. 9 illustrates an example layout of a multiwell plate. Imaging of the fluorescent markers included 10× magnification, at 37° C. Three rounds of imaging was performed per plate. For each imaging, two florescent images and one phase image was acquired. Since a common problem for circular shape dishes is rotation of wells, the multi-well plate is optionally a rectangular shape, so that one can easily find the same location in each well. Images of fluorescent markers in each well are taken before cell seeding. In addition, one can store the exact z-position of best sensor focus on each well. It is known that the multi-well plate may not be perfectly flat (e.g., there can be sagging in the middle of the plate). In addition, small changes in sensor depth focus can jeopardize image quality and in turn, traction calculation. Therefore, a prescanning step can aid in screening. After prescanning, wells are seeded with cells and a regular cell culture protocol can be followed. In example 3, a baseline-scanning typically takes fifteen minutes. Drugs can be added and the plates can be incubated for a certain time (e.g., in example 3, incubation occurred over a period of one hour). After incubation, a drug-scan can occur. Thus, three images (prescan, baseline-scan, and drug-scan) are acquired. FIG. 7 is a series of images illustrating a set of three example acquired images. At 700 is a fluorescent image of a bottom bead (0.5 μm). At 710 is a phase contrast image. At 720 is a fluorescent image of a yellow/green bead 0.2 μm. Root mean square values of the absolute traction forces were calculated before and after adding drugs. FIG. 10 illustrates an example process flow diagram 1000 for high-throughput screening using cellular contraction. For example, using the process illustrated in FIG. 10 and a 96 well plate, each scan takes approximately 15 minutes. Since each plate goes through a baseline scan, drug incubation (60 minutes), and a drug scan, it takes approximately 90 minutes per plate. Drug-induced changes in traction provide a simple and physiologically relevant index to identify hits, i.e., those molecules that appreciably reduce cellular traction forces. FIG. 8 is a series of images illustrating six absolute cell traction maps. At 800-850 are cell traction maps for 0.5% Dimethylsulfoxide (DMSO), 1% Fetal Bovine Serum (FBS), 10 μM Y27632, both before and after adding drugs. Y27632 is an inhibitor of the Rho-associated protein kinase, which is known to reduce cellular contraction. […] The treatment of 1% FBS increased RMS traction by 77% from the baseline. The treatment of 10 uM Y-27632 decreased RMS traction by 71% from the baseline. The ratio of RMS tractions of before and after drug treatment (or, normalized contraction) is an index to evaluate the effects of drugs in both stiffening and softening responses.

As for `C[C@@H](N)[C@H]1CC[C@H](C(=O)Nc2ccncc2)CC1` [Y27632], the “normalized traction (RMS traction after adding drug/RMS traction before adding drug)” value was “decreased traction” and the “change in cellular contraction (RMS traction) with increasing doses” value is reported as “decreasing cellular contraction in a dose dependent manner”. In addition, the “measured change in RMS traction (ratio of RMS tractions before and after drug treatment, normalized contraction)” value (10 μM Y27632, FIG. 8) came to 0.29. Besides, the “decrease of RMS traction from the baseline” value (10 uM Y-27632) is recorded as 71%.

As for `CC(C)NCC(O)c1ccc(O)c(O)c1` (centres unmarked) [isoproterenol], the “normalized traction (RMS traction after adding drug/RMS traction before adding drug)” value is reported as “decreased traction” and the “change in cellular contraction (RMS traction) with increasing doses” value is on record as “did not appear dose dependent”. Besides, where the note is “increasing doses of isoproterenol, FIG. 13”, the “decrease in cellular contraction” value is “more than 50%”. Where the note is “iso 50 μM, FIG. 12”, the normalized traction entry is recorded as “below 0.5”.

(Values after patent publication US9606108B2, “Deformable platforms for biological assays” (President and Fellows of Harvard College, priority 2011, dated 2017).)
